In ChEMBL document CHEMBL5576150, “Synthesis and Biological Evaluation of Pyrazole-Pyrimidones as a New Class of Correctors of the Cystic Fibrosis Transmembrane Conductance Regulator (CFTR)” (J Med Chem, 2024):
The source made the active and inactive calls. The calls are words filed in the database; no cut-off is given here.

Legend:
[1] = test system: Cystic fibrosis transmembrane conductance regulator (Homo sapiens), P13569 [F508del]; experiment: Corrector activity at 3xHA-tagged full-length human CFTR F508del mutant expressed in human CFBE41o- cells assessed as functional rescue of channel by measuring anion transport measured after 24 hrs in presence of VX-809/N-(5-(4-fluorobenzyl)thiazol-2-yl)-2,5-dimethylfuran-3-carboxamide by halide-sensitive YFP quenching assay relative to combination of VX-809/N-(5-(4-fluorobenzyl)thiazol-2-yl)-2,5-dimethylfuran-3-carboxamide; assay type: cell-based; conditions: filed as activator
[2] = test system: Cystic fibrosis transmembrane conductance regulator (Homo sapiens), P13569 [S492F]; experiment: Corrector activity at 3xHA-tagged full-length human CFTR S492F mutant expressed in human CFBE41o- cells assessed as restoration of plasma membrane density of channel in presence of N-(5-(4-fluorobenzyl)thiazol-2-yl)-2,5-dimethylfuran-3-carboxamide incubated for 24 hrs by ELISA; assay type: cell membranes; conditions: filed as activator
[3] = test system: Cystic fibrosis transmembrane conductance regulator (Homo sapiens), P13569 [S492F]; experiment: Corrector activity at 3xHA-tagged full-length human CFTR S492F mutant expressed in human CFBE41o- cells assessed as restoration of plasma membrane density of channel in presence of VX-809 incubated for 24 hrs by ELISA; assay type: cell membranes; conditions: filed as activator
[4] = test system: Cystic fibrosis transmembrane conductance regulator (Homo sapiens), P13569 [F508del]; experiment: Corrector activity at 3xHA-tagged full-length human CFTR F508del mutant expressed in human CFBE41o- cells assessed as restoration of plasma membrane density of channel in presence of N-(5-(4-fluorobenzyl)thiazol-2-yl)-2,5-dimethylfuran-3-carboxamide incubated for 24 hrs by ELISA; assay type: cell membranes; conditions: filed as activator
[5] = test system: Cystic fibrosis transmembrane conductance regulator (Homo sapiens), P13569 [S13F]; experiment: Corrector activity at 3xHA-tagged full-length human CFTR S13F mutant expressed in human CFBE41o- cells assessed as restoration of plasma membrane density of channel at 10 uM incubated for 24 hrs in presence of VX-445 by ELISA; assay type: cell membranes
[6] = test system: Cystic fibrosis transmembrane conductance regulator (Homo sapiens), P13569 [S13F]; experiment: Corrector activity at 3xHA-tagged full-length human CFTR S13F mutant expressed in human CFBE41o- cells assessed as restoration of plasma membrane density of channel in presence of N-(5-(4-fluorobenzyl)thiazol-2-yl)-2,5-dimethylfuran-3-carboxamide incubated for 24 hrs by ELISA; assay type: cell membranes; conditions: filed as activator
[7] = test system: Cystic fibrosis transmembrane conductance regulator (Homo sapiens), P13569 [F508del]; experiment: Corrector activity at 3xHA-tagged full-length human CFTR F508del mutant expressed in human CFBE41o- cells assessed as restoration of plasma membrane density of channel incubated for 24 hrs in presence of VX-445 by ELISA; assay type: cell membranes
[8] = test system: Cystic fibrosis transmembrane conductance regulator (Homo sapiens), P13569 [S492F]; experiment: Corrector activity at 3xHA-tagged full-length human CFTR S492F mutant expressed in human CFBE41o- cells assessed as restoration of plasma membrane density of channel incubated for 24 hrs in presence of VX-445 by ELISA; assay type: cell membranes
[9] = test system: Cystic fibrosis transmembrane conductance regulator (Homo sapiens), P13569 [S13F]; experiment: Corrector activity at 3xHA-tagged full-length human CFTR S13F mutant expressed in human CFBE41o- cells assessed as restoration of plasma membrane density of channel in presence of VX-809 incubated for 24 hrs by ELISA; assay type: cell membranes; conditions: filed as activator
[10] = test system: Cystic fibrosis transmembrane conductance regulator (Homo sapiens), P13569 [S13F]; experiment: Corrector activity at 3xHA-tagged full-length human CFTR S13F mutant expressed in human CFBE41o- cells assessed as restoration of plasma membrane density of channel in presence of VX-661 incubated for 24 hrs by ELISA; assay type: cell membranes; conditions: filed as activator
[11] = test system: Cystic fibrosis transmembrane conductance regulator (Homo sapiens), P13569 [F508del]; experiment: Corrector activity at 3xHA-tagged full-length human CFTR F508del mutant expressed in human CFBE41o- cells assessed as restoration of plasma membrane density of channel at 10 uM incubated for 24 hrs in presence of VX-809/N-(5-(4-fluorobenzyl)thiazol-2-yl)-2,5-dimethylfuran-3-carboxamide by densitometry relative to wild-type CFTR level; assay type: cell membranes; conditions: filed as activator
[12] = test system: Cystic fibrosis transmembrane conductance regulator (Homo sapiens), P13569 [F508del]; experiment: Corrector activity at 3xHA-tagged full-length human CFTR F508del mutant expressed in human CFBE41o- cells assessed as restoration of channel function in presence of VX-809/N-(5-(4-fluorobenzyl)thiazol-2-yl)-2,5-dimethylfuran-3-carboxamide relative to wild-type CFTR activity; assay type: cell-based; conditions: filed as activator
[13] = test system: Cystic fibrosis transmembrane conductance regulator (Homo sapiens), P13569 [R560T]; experiment: Corrector activity at 3xHA-tagged full-length human CFTR R560T mutant expressed in human CFBE41o- cells assessed as restoration of plasma membrane density of channel in presence of VX-809/N-(5-(4-fluorobenzyl)thiazol-2-yl)-2,5-dimethylfuran-3-carboxamide by ELISA; assay type: cell membranes
[14] = test system: Cystic fibrosis transmembrane conductance regulator (Homo sapiens), P13569 [N1303K]; experiment: Corrector activity at 3xHA-tagged full-length human CFTR N1303K mutant expressed in human CFBE41o- cells assessed as restoration of plasma membrane density of channel in presence of VX-809/N-(5-(4-fluorobenzyl)thiazol-2-yl)-2,5-dimethylfuran-3-carboxamide by ELISA relative to wild-type CFTR level; assay type: cell membranes; conditions: filed as activator
[15] = test system: Cystic fibrosis transmembrane conductance regulator (Homo sapiens), P13569 [F508del]; experiment: Corrector activity at 3xHA-tagged full-length human CFTR F508del mutant expressed in human CFBE41o- cells assessed as restoration of plasma membrane density of channel incubated for 24 hrs in presence of VX-661 by ELISA; assay type: cell membranes; conditions: filed as activator
[16] = test system: Cystic fibrosis transmembrane conductance regulator (Homo sapiens), P13569 [M1101K]; experiment: Corrector activity at 3xHA-tagged full-length human CFTR M1101K mutant expressed in human CFBE41o- cells assessed as restoration of plasma membrane density of channel in presence of VX-809/N-(5-(4-fluorobenzyl)thiazol-2-yl)-2,5-dimethylfuran-3-carboxamide by ELISA relative to wild-type CFTR level; assay type: cell membranes; conditions: filed as activator
[17] = test system: Cystic fibrosis transmembrane conductance regulator (Homo sapiens), P13569 [F508del]; experiment: Corrector activity at 3xHA-tagged full-length human CFTR F508del mutant expressed in human CFBE41o- cells assessed as inhibition of activity in presence of VX-809/N-(5-(4-fluorobenzyl)thiazol-2-yl)-2,5-dimethylfuran-3-carboxamide relative to control; assay type: cell-based; conditions: filed as activator
[18] = test system: Cystic fibrosis transmembrane conductance regulator (Homo sapiens), P13569 [F508del]; experiment: Corrector activity at 3xHA-tagged full-length human CFTR F508del mutant expressed in human CFBE41o- cells assessed as restoration of plasma membrane density of channel incubated for 24 hrs in presence of VX-809 by ELISA; assay type: cell membranes; conditions: filed as activator
[19] = test system: Cystic fibrosis transmembrane conductance regulator (Homo sapiens), P13569 [F508del]; experiment: Corrector activity at 3xHA-tagged full-length human CFTR F508del mutant expressed in human CFBE41o- cells assessed as restoration of plasma membrane density of channel at 10 uM incubated for 24 hrs in presence of VX-809/N-(5-(4-fluorobenzyl)thiazol-2-yl)-2,5-dimethylfuran-3-carboxamide by ELISA relative to wild-type CFTR level; assay type: cell membranes; conditions: filed as activator
[20] = test system: Cystic fibrosis transmembrane conductance regulator (Homo sapiens), P13569 [S13F]; experiment: Corrector activity at 3xHA-tagged full-length human CFTR S13F mutant expressed in human CFBE41o- cells assessed as restoration of plasma membrane density of channel in presence of VX-809/N-(5-(4-fluorobenzyl)thiazol-2-yl)-2,5-dimethylfuran-3-carboxamide by ELISA; assay type: cell membranes; conditions: filed as activator
[21] = molecular target: Cystic fibrosis transmembrane conductance regulator (Homo sapiens, UniProt P13569, F508DEL); experiment: Corrector activity at 3xHA-tagged full-length human CFTR F508del mutant expressed in human CFBE41o- cells assessed as restoration of plasma membrane density of channel incubated for 24 hrs in presence of VX-809/N-(5-(4-fluorobenzyl)thiazol-2-yl)-2,5-dimethylfuran-3-carboxamide by ELISA; assay type: cell membranes
[22] = test system: Cystic fibrosis transmembrane conductance regulator (Homo sapiens), P13569 [S13F]; experiment: Corrector activity at 3xHA-tagged full-length human CFTR S13F mutant expressed in human CFBE41o- cells assessed as restoration of plasma membrane density of channel incubated for 24 hrs in presence of VX-445 by ELISA; assay type: cell membranes
[23] = test system: Cystic fibrosis transmembrane conductance regulator (Homo sapiens), P13569 [F508del]; experiment: Corrector activity at 3xHA-tagged full-length human CFTR F508del mutant expressed in human CFBE41o- cells assessed as restoration of plasma membrane density of channel at 10 uM incubated for 24 hrs in presence of VX-809/N-(5-(4-fluorobenzyl)thiazol-2-yl)-2,5-dimethylfuran-3-carboxamide by immunoblot analysis relative to wild-type CFTR level; assay type: cell membranes; conditions: filed as activator
[24] = test system: Cystic fibrosis transmembrane conductance regulator (Homo sapiens), P13569 [S492F]; experiment: Corrector activity at 3xHA-tagged full-length human CFTR S492F mutant expressed in human CFBE41o- cells assessed as restoration of plasma membrane density of channel in presence of VX-661 incubated for 24 hrs by ELISA; assay type: cell membranes; conditions: filed as activator
[25] = test system: Cystic fibrosis transmembrane conductance regulator (Homo sapiens), P13569 [S492F]; experiment: Corrector activity at 3xHA-tagged full-length human CFTR S492F mutant expressed in human CFBE41o- cells assessed as restoration of plasma membrane density of channel in presence of VX-809/N-(5-(4-fluorobenzyl)thiazol-2-yl)-2,5-dimethylfuran-3-carboxamide by ELISA; assay type: cell membranes; conditions: filed as activator

Cystic fibrosis transmembrane conductance regulator (Homo sapiens), P13569 [S13F], sequence (P13569 whole entry S13F): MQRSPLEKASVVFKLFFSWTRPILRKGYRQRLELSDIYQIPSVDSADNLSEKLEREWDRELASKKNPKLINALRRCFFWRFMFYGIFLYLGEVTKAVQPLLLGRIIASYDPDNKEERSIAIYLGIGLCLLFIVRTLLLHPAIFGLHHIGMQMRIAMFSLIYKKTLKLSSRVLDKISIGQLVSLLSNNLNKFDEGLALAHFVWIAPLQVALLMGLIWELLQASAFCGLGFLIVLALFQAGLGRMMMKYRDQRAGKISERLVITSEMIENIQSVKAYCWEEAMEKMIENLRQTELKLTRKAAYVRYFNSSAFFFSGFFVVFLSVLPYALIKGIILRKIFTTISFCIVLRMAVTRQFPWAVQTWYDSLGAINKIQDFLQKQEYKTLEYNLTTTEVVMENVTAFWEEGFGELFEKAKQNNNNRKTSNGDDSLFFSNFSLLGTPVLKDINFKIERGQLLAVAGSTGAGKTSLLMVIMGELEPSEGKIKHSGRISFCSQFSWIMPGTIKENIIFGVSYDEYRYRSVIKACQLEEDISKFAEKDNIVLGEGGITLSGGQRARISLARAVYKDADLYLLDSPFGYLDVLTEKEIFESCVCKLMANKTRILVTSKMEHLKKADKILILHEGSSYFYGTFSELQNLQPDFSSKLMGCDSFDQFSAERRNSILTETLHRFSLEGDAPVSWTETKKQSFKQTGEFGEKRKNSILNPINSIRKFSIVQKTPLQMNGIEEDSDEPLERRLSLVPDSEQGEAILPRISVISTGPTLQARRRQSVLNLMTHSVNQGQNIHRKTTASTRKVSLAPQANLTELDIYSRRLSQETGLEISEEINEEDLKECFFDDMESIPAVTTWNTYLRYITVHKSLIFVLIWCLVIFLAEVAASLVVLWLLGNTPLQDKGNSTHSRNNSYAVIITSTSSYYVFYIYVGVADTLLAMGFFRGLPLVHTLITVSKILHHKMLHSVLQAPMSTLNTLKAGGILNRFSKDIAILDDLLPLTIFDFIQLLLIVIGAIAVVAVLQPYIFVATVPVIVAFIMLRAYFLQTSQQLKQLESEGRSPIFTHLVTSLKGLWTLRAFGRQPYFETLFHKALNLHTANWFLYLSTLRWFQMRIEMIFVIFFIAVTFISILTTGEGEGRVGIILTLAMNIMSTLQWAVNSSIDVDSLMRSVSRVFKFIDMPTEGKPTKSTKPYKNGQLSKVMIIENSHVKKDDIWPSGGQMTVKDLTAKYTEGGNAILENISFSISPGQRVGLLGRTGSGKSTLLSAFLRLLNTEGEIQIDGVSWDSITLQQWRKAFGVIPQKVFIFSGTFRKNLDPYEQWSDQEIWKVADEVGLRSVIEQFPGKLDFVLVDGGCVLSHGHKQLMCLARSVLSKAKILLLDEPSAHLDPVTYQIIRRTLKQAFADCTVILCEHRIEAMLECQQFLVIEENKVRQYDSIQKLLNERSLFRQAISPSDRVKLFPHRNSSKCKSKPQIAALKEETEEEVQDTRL
Cystic fibrosis transmembrane conductance regulator (Homo sapiens), P13569 [S492F], sequence (P13569 whole entry S492F): as the sequence (P13569 whole entry S13F) above, with F13S, S492F counted along it
Cystic fibrosis transmembrane conductance regulator (Homo sapiens), P13569 [F508del], sequence (P13569 as listed by the source): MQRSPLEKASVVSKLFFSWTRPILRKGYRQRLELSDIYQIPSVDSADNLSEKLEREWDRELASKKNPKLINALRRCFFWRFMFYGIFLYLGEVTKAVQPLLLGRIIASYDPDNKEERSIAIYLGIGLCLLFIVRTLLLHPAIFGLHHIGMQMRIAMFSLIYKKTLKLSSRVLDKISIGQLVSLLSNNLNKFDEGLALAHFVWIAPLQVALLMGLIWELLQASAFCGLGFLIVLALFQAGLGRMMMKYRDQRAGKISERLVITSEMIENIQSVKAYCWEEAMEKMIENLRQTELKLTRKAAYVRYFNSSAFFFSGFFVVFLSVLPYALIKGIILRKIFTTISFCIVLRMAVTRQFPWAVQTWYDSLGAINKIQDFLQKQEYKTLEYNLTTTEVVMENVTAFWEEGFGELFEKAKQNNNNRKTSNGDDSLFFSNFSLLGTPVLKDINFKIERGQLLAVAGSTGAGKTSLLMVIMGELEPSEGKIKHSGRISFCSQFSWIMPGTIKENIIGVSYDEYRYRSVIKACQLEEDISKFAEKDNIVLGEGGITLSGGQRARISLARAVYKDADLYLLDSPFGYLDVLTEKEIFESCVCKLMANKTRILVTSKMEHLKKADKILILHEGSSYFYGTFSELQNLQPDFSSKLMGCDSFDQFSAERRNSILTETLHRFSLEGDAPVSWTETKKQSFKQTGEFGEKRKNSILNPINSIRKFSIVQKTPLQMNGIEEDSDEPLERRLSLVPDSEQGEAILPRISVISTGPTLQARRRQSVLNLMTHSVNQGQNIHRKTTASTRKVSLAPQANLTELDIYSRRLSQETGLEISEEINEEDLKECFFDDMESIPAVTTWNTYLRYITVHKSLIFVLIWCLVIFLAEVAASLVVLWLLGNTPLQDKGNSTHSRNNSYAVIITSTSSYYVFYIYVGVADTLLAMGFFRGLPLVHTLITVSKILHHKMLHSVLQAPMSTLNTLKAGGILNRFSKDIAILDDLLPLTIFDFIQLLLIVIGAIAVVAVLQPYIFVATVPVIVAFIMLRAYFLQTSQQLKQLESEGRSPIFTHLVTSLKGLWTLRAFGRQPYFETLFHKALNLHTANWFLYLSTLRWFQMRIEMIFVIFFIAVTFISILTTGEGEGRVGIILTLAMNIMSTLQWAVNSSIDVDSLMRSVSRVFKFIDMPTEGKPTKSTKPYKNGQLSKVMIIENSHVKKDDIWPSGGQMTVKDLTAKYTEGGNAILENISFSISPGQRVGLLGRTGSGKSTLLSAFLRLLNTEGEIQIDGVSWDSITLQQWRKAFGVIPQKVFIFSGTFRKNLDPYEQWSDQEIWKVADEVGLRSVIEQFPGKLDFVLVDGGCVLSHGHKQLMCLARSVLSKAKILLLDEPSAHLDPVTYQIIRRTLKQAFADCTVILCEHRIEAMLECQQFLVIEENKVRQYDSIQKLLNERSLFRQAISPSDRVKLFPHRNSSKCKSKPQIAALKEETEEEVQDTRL
Cystic fibrosis transmembrane conductance regulator (Homo sapiens), P13569 [M1101K], sequence (P13569 whole entry M1101K): as the sequence (P13569 whole entry S13F) above, with F13S, M1101K counted along it
Cystic fibrosis transmembrane conductance regulator (Homo sapiens), P13569 [R560T], sequence (P13569 whole entry R560T): as the sequence (P13569 whole entry S13F) above, with F13S, R560T counted along it
Cystic fibrosis transmembrane conductance regulator, sequence (P13569 as listed by the source): as the sequence (P13569 as listed by the source) above
Cystic fibrosis transmembrane conductance regulator (Homo sapiens), P13569 [N1303K], sequence (P13569 whole entry N1303K): as the sequence (P13569 whole entry S13F) above, with F13S, N1303K counted along it

With `Cc1cc(=O)[nH]c(-n2nc(-c3cccs3)cc2NC(=O)C2(c3ccc(Cl)cc3)CCCC2)n1` the Activity [1] was 250%, the Activity [2] was “Active” and the Activity [3] was “Active”. The Activity [4] was “Active”, the Activity [5] was “inactive” and the Activity [6] was “Active”. The Activity [7] was “inactive”, the Activity [8] was “inactive” and the Activity [9] was “Active”. For the same compound, the Activity [10] was “Active”, the Activity [11] was 100% and the Activity [12] was 50%. The Activity [13] was “inactive”, the Activity [14] was 15% and the Activity [15] was “Active”. The Activity [16] was 15%, the inhibition [17] was 15% and the Activity [18] was “Active”. The Activity [19] was 77%, the Activity [20] was “Active” and the EC50 [21] was 6.83 µM. For the same compound, the Activity [22] was “inactive”, the Activity [23] was 100% and the Activity [24] was “Active”. The Activity [25] was “Active”.
